The values that follow come from ChEMBL document CHEMBL3603838, “Guanidinium compounds with sub-micromolar activities against Mycobacterium tuberculosis. Synthesis, characterization and biological evaluations” (Bioorg Med Chem, 2015).

For orientation: MIC means the lowest concentration that inhibits growth of the organism. High values mean weaker potency, low ones greater potency. In general, IC50 refers to the concentration that gives 50% inhibition.

Values after ≈ are worked out from the molar mass of the structure shown. A value given as a limit tells only on which side of the number the result lay.

Data set [1] deals with Mycobacterium tuberculosis. Kind of data set: Antimycobacterial activity against isoniazid-resistant Mycobacterium tuberculosis MYC5165 after 6 days by MTT assay. The settings on record: MYC5165, 144 h. The format is functional, organism-based.
Data set [2] can be described thus: Selectivity index, ratio of CC50 for human MRC5 cells to MIC for isoniazid-resistant Mycobacterium tuberculosis MYC5165. The format is toxicity, cell-based. The settings on record: read-out: Selectivity Index.
Data set [3] deals with Mycobacterium tuberculosis. As to the kind of experiment: Ratio of isoniazid MIC to compound MIC for isoniazid-resistant Mycobacterium tuberculosis MYC5165. It counts as functional.
Data set [4] deals with Mycobacterium tuberculosis. Kind of data set: Ratio of CX1 MIC to compound MIC for isoniazid-resistant Mycobacterium tuberculosis MYC5165. It counts as functional.
Data set [5] concerns Mycobacterium tuberculosis. Kind of data set: Ratio of streptomycin MIC to compound MIC for isoniazid-resistant Mycobacterium tuberculosis MYC5165. It counts as functional.

In data set [1], `N=C(N)NCCc1cc2c(O)c(c1)Cc1cc(CCNC(=N)N)cc(c1O)Cc1cc(CCNC(=N)N)cc(c1O)Cc1cc(CCNC(=N)N)cc(c1O)C2` registered an MIC of 0.8 µM (≈ 0.612 µg/mL). The selectivity ratio in data set [2] was over 256.

For the compound `N=C(N)NCCc1ccc(OCc2ccccc2COc2ccc(CCNC(=N)N)cc2)cc1.O=C(O)C(F)(F)F`, the MIC in data set [1] was 3.1 µM. The IC50 in data set [1] (read-out: IC50) was found to be 0.9 µM. In addition, the Ratio in data set [3] stood at 4. Further, the selectivity ratio in data set [2] was 45.

`N=C(N)NCCc1ccc(OCc2cccc(COc3ccc(CCNC(=N)N)cc3)c2)cc1.O=C(O)C(F)(F)F` came in with a minimum inhibitory concentration (MIC) in data set [1] of 0.8 µM. For the same compound, in data set [1] (read-out: IC50), the IC50 came out at 0.3 µM. For the same compound, the Ratio in data set [4] and in data set [3] was 16 each time. In data set [2], the selectivity ratio stood at 62.

In data set [1], `N=C(N)NCCc1ccc(OCc2ccc(COc3ccc(CCNC(=N)N)cc3)cc2)cc1.O=C(O)C(F)(F)F` showed an MIC of 0.8 µM. Also, the IC50 in data set [1] (read-out: IC50) amounted to 0.2 µM. In addition, the figures for the Ratio in data set [4] and in data set [3] were 16 and 60, respectively. Moreover, the selectivity ratio in data set [2] worked out at 38.

As to `N=C(N)NCCc1ccc(OCc2cc(COc3ccc(CCNC(=N)N)cc3)cc(COc3ccc(CCNC(=N)N)cc3)c2)cc1.O=C(O)C(F)(F)F`, the MIC in data set [1] is 0.2 µM. Besides, the figures for the Ratio in data set [3] and in data set [5] were over 125 and 4, respectively. In data set [2], the selectivity ratio is 198.

Compound `N=C(N)NCCc1ccc(OCc2cc(COc3ccc(CCNC(=N)N)cc3)c(COc3ccc(CCNC(=N)N)cc3)cc2COc2ccc(CCNC(=N)N)cc2)cc1.O=C(O)C(F)(F)F` returned an MIC in data set [1] of 0.1 µM. The IC50 in data set [1] (read-out: IC50) was 0.03 µM. Moreover, the Ratio in data set [3] is over 125. Further, the selectivity ratio in data set [2] came to 377.

In data set [1], `O=C(O)c1cn(C2CC2)c2cc(N3CCNCC3)c(F)cc2c1=O` [CIPROFLOXACIN] displayed an IC50 of 1.8 µM and an MIC of 2.5 µM (≈ 0.828 µg/mL).

Turning to `NNC(=O)c1ccncc1` [ISONIAZID], the lowest concentration to inhibit growth in data set [1] (MIC) was 12.5 µM (≈ 1.71 µg/mL). In addition, the IC50 in data set [1] (read-out: IC50) turned out to be 0.65 µM. The selectivity ratio in data set [2] was over 6.

`CN[C@@H]1[C@H](O[C@H]2[C@H](O[C@H]3[C@H](O)[C@@H](O)[C@H](N=C(N)N)[C@@H](O)[C@@H]3N=C(N)N)O[C@@H](C)[C@]2(O)C=O)O[C@@H](CO)[C@H](O)[C@H]1O` [STREPTOMYCIN] came in with an MIC in data set [1] of 2.7 µM (≈ 1.57 µg/mL).
